In patent US12338256B2, “Aza-tetracyclic oxazepine compounds and uses thereof” (Genentech, Inc., priority 2022, dated 2025):
pIC50: −log10 of the molar value. Like-named read-outs stand apart in the source and are kept apart here.

Experiments:
[1] = tested on: HPAC (homozygous mutant KRAS G12D human pancreatic cell line); assay: KRAS 3D-Cell Proliferation Assay, HPAC (Example 503); type: cell-based; conditions: HPAC 3D culture, 7 days, CellTiter-Glo 3D, read-out: Prolif HPAC 3D ATP IC50
Experimental: (§1) Example 503: KRAS 3D-Cell Proliferation Assays. Cellular potencies of compounds are assessed by evaluating inhibition of proliferation in 3D cultures of homozygous mutant KRAS G12D human pancreatic cell lines (AsPC-1 and HPAC) as compared to a KRAS wild type human lung adenocarcinoma cell line (PC-9 and/or H1975). Cells are seeded into 384-well black round-bottom, ultra-low attachment assay plates in 50 uL cell growth medium (RPMI-1640 with 10% fetal bovine serum and 2 mM L-glutamine). After overnight incubation at 37° C. and 5% CO2, compounds solubilized in DMSO are added as dilution series to the wells in a total volume of 150 nL (0.3% DMSO final). The cells are incubated for 7 days at 37° C. and 5% CO2. Cell proliferation is quantitated by addition of 40 uL/well of CellTiter-GloÒ 3D (Promega), and the well contents are mixed 20× at high speed using liquid handling automation workstation (Bravo with 384-well head) and centrifuged at 1500 rpm for 2 minutes to eliminate bubbles. This reagent in combination with mechanical disruption releases the cellular ATP to promote activity in a luciferase-based enzyme/substrate chemiluminescent detection system. After a 30-minute incubation under ambient conditions with shaking and an additional 10 minutes without shaking, the luminescence is read on a plate reader (e.g., EnVision [PerkinElmer]). The results are normalized to percent inhibition based on the following control samples: DMSO (0% inhibition) and 1 μM staurosporine (100% inhibition). The normalized luminescence results are plotted against compound concentration, and the data are fit to a 4-parameter Hill equation to determine the IC50 values.

[2] = tested on: H1975 (KRAS wild type human lung adenocarcinoma cell line); assay: KRAS 3D-Cell Proliferation Assay, H1975 (Example 503); type: cell-based; conditions: H1975 3D culture, 7 days, CellTiter-Glo 3D, read-out: Prolif H1975 3D ATP IC50
Experimental: as §1

| Compound | pIC50 ([1]; Homo sapiens, HPAC, 168 h) | pIC50 ([2]; Homo sapiens, NCI-H1975, 168 h) | pIC50 [1] | pIC50 [2] |
| --- | --- | --- | --- | --- |
| Cc1nc(N)c(Cl)c(-c2nc3c4c(nc(OC[C@@]56CCCN5C[C@H](F)C6)nc4c2F)N2C[C@H]4CC[C@H](N4)[C@H]2[C@H](C)O3)c1C(F)(F)F [Compound 197, 3-Chloro-4-((5S,5aS,6S,9R)-1-fluoro-12-(((2R,7aS)-2-fluorotetrahydro-1H-pyrrolizin-7a(5H)-yl)methoxy)-5-methyl-5a,6,7,8,9,10-hexahydro-5H-4-oxa-3,10a,11,13,14-pentaaza-6,9-methanonaphtho[1,8-ab]heptalen-2-yl)-6-methyl-5-(trifluoromethyl)pyridin-2-amine] | 8.01 | 6.33 | – | – |
| CO[C@H]1CN(CC2(COc3nc4c5c(nc(-c6cc(N)nc(C)c6C(F)(F)F)c(F)c5n3)O[C@@H](C)[C@@H]3[C@@H]5CC[C@H](CN43)N5)CC2)C[C@@H]1F [Compound 291, 4-((5S,5aS,6S,9R)-1-fluoro-12-((1-(((3S,4S)-3-fluoro-4-methoxypyrrolidin-1-yl)methyl)cyclopropyl)methoxy)-5-methyl-5a,6,7,8,9,10-hexahydro-5H-4-oxa-3,10a,11,13,14-pentaaza-6,9-methanonaphtho[1,8-ab]heptalen-2-yl)-6-methyl-5-(trifluoromethyl)pyridin-2-amine] | 8.39 | 4.91 | – | – |
| Cc1c(F)c(N)cc(-c2nc3c4c(nc(OC[C@@]5(CC(F)F)CCCN5C)nc4c2F)N2C[C@H]4CC[C@H](N4)[C@H]2[C@H](C)O3)c1C(F)(F)F (single isomer, unassigned) [150 (isomer 1)] | 7.86 | 5.42 | – | – |
| Cc1c(F)c(N)cc(-c2nc3c4c(nc(OCC56COCC5CCN6C)nc4c2F)N2CC4CCC(N4)C2C(C)O3)c1C(F)(F)F (single isomer, unassigned) [134 (isomer 2)] | 8.13 | 5.71 | – | – |
| Cc1nc(N)c(F)c(-c2nc3c4c(nc(OCC5(CN6CCOCC6)CC5)nc4c2F)N2C[C@H]4CC[C@H](N4)[C@H]2[C@H](C)O3)c1C(F)(F)F [Compound 219, 3-Fluoro-4-((5S,5aS,6S,9R)-1-fluoro-5-methyl-12-((1-(morpholinomethyl)cyclopropyl)methoxy)-5a,6,7,8,9,10-hexahydro-5H-4-oxa-3,10a,11,13,14-pentaaza-6,9-methanonaphtho[1,8-ab]heptalen-2-yl)-6-methyl-5-(trifluoromethyl)pyridin-2-amine] | 8.44 | 5.08 | – | – |
| Cc1nc(N)cc(-c2nc3c4c(nc(OCC5(CN6CCC7(C6)CC7(F)F)CC5)nc4c2F)N2C[C@H]4CC[C@H](N4)[C@H]2[C@H](C)O3)c1C(F)(F)F (stereo partly drawn) [Compound 279, 4-((5S,5aS,6S,9R)-12-((1-((1,1-difluoro-5-azaspiro[2.4]heptan-5-yl)methyl)cyclopropyl)methoxy)-1-fluoro-5-methyl-5a,6,7,8,9,10-hexahydro-5H-4-oxa-3,10a,11,13,14-pentaaza[6,9]methanonaphtho[1,8-ab]heptalene-2-yl)-6-methyl-5-(trifluoromethyl)pyridin-2-amine] | 8.69 | 5.90 | – | – |
| Cc1c(F)c(N)cc(-c2nc3c4c(nc(OCC5(CN6C[C@@H]7C[C@H]6CO7)CC5)nc4c2F)N2C[C@H]4CC[C@H](N4)[C@H]2[C@H](C)O3)c1C(F)(F)F [Compound 169, 5-((5S,5aS,6S,9R)-12-((1-(((1S,4S)-2-Oxa-5-azabicyclo[2.2.1]heptan-5-yl)methyl)cyclopropyl)methoxy)-1-fluoro-5-methyl-5a,6,7,8,9,10-hexahydro-5H-4-oxa-3,10a,11,13,14-pentaaza-6,9-methanonaphtho[1,8-ab]heptalene-2-yl)-2-fluoro-3-methyl-4-(trifluoromethyl)aniline] | 9.04 | 6.34 | – | – |
| Cc1c(F)c(O)cc(-c2nc3c4c(nc(OC[C@@]56CCCN5C[C@H](F)C6)nc4c2F)N2C[C@H]4CC[C@H](N4)[C@H]2[C@H](C)O3)c1C(F)(F)F [Compound 202, 2-Fluoro-5-((5S,5aS,6S,9R)-1-fluoro-12-(((2R,7aS)-2-fluorotetrahydro-1H-pyrrolizin-7a(5H)-yl)methoxy)-5-methyl-5a,6,7,8,9,10-hexahydro-5H-4-oxa-3,10a,11,13,14-pentaaza-6,9-methanonaphtho[1,8-ab]heptalen-2-yl)-3-methyl-4-(trifluoromethyl)phenol] | 5.70 | 4.70 | – | – |
| C[C@@H]1Oc2nc(-c3cc(N)c(F)cc3CC(F)F)c(F)c3nc(OC[C@@]45CCCN4C[C@H](F)C5)nc(c23)N2C[C@H]3CC[C@H](N3)[C@@H]12 [Compound 187, 4-(2,2-Difluoroethyl)-2-fluoro-5-((5S,5aS,6S,9R)-1-fluoro-12-(((2R,7aS)-2-fluorotetrahydro-1H-pyrrolizin-7a(5H)-yl)methoxy)-5-methyl-5a,6,7,8,9,10-hexahydro-5H-4-oxa-3,10a,11,13,14-pentaaza-6,9-methanonaphtho[1,8-ab]heptalene-2-yl)aniline] | 7.46 | 4.72 | – | – |
| Cc1c(F)c(N)cc(-c2nc3c4c(nc(OC[C@@]56CCCN5C[C@H](F)C6)nc4c2F)N2C[C@H]4CC[C@H](N4)[C@H]2[C@H](C)O3)c1C=O [Compound 59, 4-Amino-3-fluoro-6-((5S,5aS,6S,9R)-1-fluoro-12-(((2R,7aS)-2-fluorotetrahydro-1H-pyrrolizin-7a(5H)-yl)methoxy)-5-methyl-5a,6,7,8,9,10-hexahydro-5H-4-oxa-3,10a,11,13,14-pentaaza-6,9-methanonaphtho[1,8-ab]heptalen-2-yl)-2-methylbenzaldehyde] | 6.93 | 4.98 | – | – |
| C[C@@H]1Oc2nc(-c3cc(N)cc4c3CCC4)c(F)c3nc(OC[C@@]45CCCN4C[C@H](F)C5)nc(c23)N2C[C@H]3CC[C@H](N3)[C@@H]12 [Compound 83, 7-((5S,5aS,6S,9R)-1-Fluoro-12-(((2R,7aS)-2-fluorotetrahydro-1H-pyrrolizin-7a(5H)-yl)methoxy)-5-methyl-5a,6,7,8,9,10-hexahydro-5H-4-oxa-3,10a,11,13,14-pentaaza-6,9-methanonaphtho[1,8-ab]heptalen-2-yl)-2,3-dihydro-1H-inden-5-amine] | 7.63 | 5.65 | – | – |
| Cc1c(Cl)c(N)cc(-c2nc3c4c(nc(OC[C@@]56CCCN5C[C@H](F)C6)nc4c2Cl)N2C[C@H]4CC[C@H](N4)[C@H]2[C@H](C)O3)c1C(F)(F)F [Compound 241, 2-Chloro-5-((5S,5aS,6S,9R)-1-chloro-12-(((2R,7aS)-2-fluorotetrahydro-1H-pyrrolizin-7a(5H)-yl)methoxy)-5-methyl-5a,6,7,8,9,10-hexahydro-5H-4-oxa-3,10a,11,13,14-pentaaza-6,9-methanonaphtho[1,8-ab]heptalen-2-yl)-3-methyl-4-(trifluoromethyl)aniline] | 7.79 | 5.92 | – | – |
| Cc1c(F)c(N)cc(-c2nc3c4c(nc(OCC56CCCN5CC(F)C6F)nc4c2F)N2CC4CCC(N4)C2C(C)O3)c1C(F)(F)F (single isomer, unassigned) [143 (isomer 3)] | 8.32 | – | – | – |
| Cc1c(F)c(N)cc(-c2nc3c4c(nc(OC[C@@]56CCCN5C[C@H](F)C6)nc4c2F)N2C[C@H]4CC[C@H](N4)C2C(C(F)F)O3)c1C(F)(F)F (single isomer, unassigned) [238 (isomer 2)] | – | – | 5.70 | – |
| Cc1c(F)c(N)cc(-c2nc3c4c(nc(OCC56CCCN5CCN(C)C6=O)nc4c2F)N2C[C@H]4CC[C@H](N4)[C@H]2[C@H](C)O3)c1C(F)(F)F (single isomer, unassigned) [137 (isomer 2)] | – | – | – | 4.70 |
| Cc1c(F)c(N)cc(-c2nc3c4c(nc(OCC5CC6COCCN65)nc4c2F)N2C[C@H]4CC[C@H](N4)[C@H]2[C@H](C)O3)c1C(F)(F)F (single isomer, unassigned) [159 (diast. 1)] | 7.43 | – | – | – |
| Cc1c(F)c(N)cc(-c2nc3c4c(nc(OCC5CCC6CN(C)C(=O)CN56)nc4c2F)N2CC4CCC(N4)C2C(C)O3)c1C(F)(F)F (single isomer, unassigned) [131 (isomer 4)] | – | 5.17 | – | – |
| Cc1nc(N)cc(-c2nc3c4c(nc(OCC5N(C)CC56CC6(F)F)nc4c2F)N2CC4CCC(N4)C2C(C(F)(F)F)O3)c1C(F)(F)F (single isomer, unassigned) [262 (isomer 2)] | 6.91 | – | – | – |
| C[C@@H]1Oc2nc(-c3cc(N)c(F)cc3[C@H](C)C(F)F)c(F)c3nc(OC[C@@]45CCCN4C[C@H](F)C5)nc(c23)N2C[C@H]3CC[C@H](N3)[C@@H]12 (single isomer, unassigned) [181 (isomer 1)] | – | 4.91 | – | – |
| Cc1c(F)c(N)cc(-c2nc3c4c(nc(OC[C@]5(CN6C[C@H]7C[C@@H]6CO7)CC5(F)F)nc4c2F)N2C[C@H]4CC[C@H](N4)[C@H]2[C@H](C)O3)c1C(F)(F)F (single isomer, unassigned) [166 a] | – | – | 8.84 | – |
| Cc1c(F)c(N)cc(-c2nc3c4c(nc(OCC5COCC6CCCN65)nc4c2F)N2CC4CCC(N4)C2C(C)O3)c1C(F)(F)F (single isomer, unassigned) [121 (isomer 1)] | 7.90 | – | – | – |
